# From ChEMBL document CHEMBL4706518, “Discovery of MGS0274, an ester prodrug of a metabotropic glutamate receptor 2/3 agonist with improved oral bioavailability” (Eur J Med Chem, 2020)
# Activity calls are given as the source filed them. No cut-off for these calls is given here.
# Key:
# [1] = target: Metabotropic glutamate receptor 3 (Rattus norvegicus, UniProt P31422); test: Agonist activity at rat mGlu3 receptor expressed in CHO cell membranes by GTPgammaS binding assay; assay type: functional, Cell membrane
# [2] = target: T1, Metabotropic glutamate receptor 1 (Homo sapiens, UniProt Q13255); test: Agonist activity at human mGlu1 receptor expressed in CHO cell membranes by intracellular Ca2+ assay; assay type: functional, Cell membrane
# [3] = target: T2, Metabotropic glutamate receptor 8 (Homo sapiens, UniProt O00222); test: Antagonist activity at human mGlu8 receptor expressed in CHO cell membranes in presence of glutamate by GTPgammaS binding assay; assay type: functional, Cell membrane
# [4] = Oral bioavailability in monkey at 4.92 umol/kg measured up to 24 hrs by LC-MS/MS analysis; assay type: ADME, organism-based, Macaca mulatta; details: rhesus monkey, in vivo, at 4.92 µmol/kg
# [5] = target: Vasopressin V1b receptor (Homo sapiens) (UniProt P47901); test: Binding affinity to Vasopressin V1b receptor (unknown origin) 10 umol/L by radioligand binding assay; details: dose 10.0 µmol/L
# [6] = target: Alpha-2B adrenergic receptor (Homo sapiens) (UniProt P18089); test: Binding affinity to alpha2B adrenoreceptor (unknown origin) 10 umol/L by radioligand binding assay; details: dose 10.0 µmol/L
# [7] = target: Muscarinic acetylcholine receptor M5 (Homo sapiens) (UniProt P08912); test: Binding affinity to muscarinic M5 (unknown origin) 10 umol/L by radioligand binding assay; details: dose 10.0 µmol/L
# [8] = target: T3, Metabotropic glutamate receptor 3 (Homo sapiens, UniProt Q14832); test: Antagonist activity at human mGlu3 receptor expressed in CHO cell membranes in presence of glutamate by GTPgammaS binding assay; assay type: functional, Cell membrane
# Target sequence in this assay (Q14832 whole entry): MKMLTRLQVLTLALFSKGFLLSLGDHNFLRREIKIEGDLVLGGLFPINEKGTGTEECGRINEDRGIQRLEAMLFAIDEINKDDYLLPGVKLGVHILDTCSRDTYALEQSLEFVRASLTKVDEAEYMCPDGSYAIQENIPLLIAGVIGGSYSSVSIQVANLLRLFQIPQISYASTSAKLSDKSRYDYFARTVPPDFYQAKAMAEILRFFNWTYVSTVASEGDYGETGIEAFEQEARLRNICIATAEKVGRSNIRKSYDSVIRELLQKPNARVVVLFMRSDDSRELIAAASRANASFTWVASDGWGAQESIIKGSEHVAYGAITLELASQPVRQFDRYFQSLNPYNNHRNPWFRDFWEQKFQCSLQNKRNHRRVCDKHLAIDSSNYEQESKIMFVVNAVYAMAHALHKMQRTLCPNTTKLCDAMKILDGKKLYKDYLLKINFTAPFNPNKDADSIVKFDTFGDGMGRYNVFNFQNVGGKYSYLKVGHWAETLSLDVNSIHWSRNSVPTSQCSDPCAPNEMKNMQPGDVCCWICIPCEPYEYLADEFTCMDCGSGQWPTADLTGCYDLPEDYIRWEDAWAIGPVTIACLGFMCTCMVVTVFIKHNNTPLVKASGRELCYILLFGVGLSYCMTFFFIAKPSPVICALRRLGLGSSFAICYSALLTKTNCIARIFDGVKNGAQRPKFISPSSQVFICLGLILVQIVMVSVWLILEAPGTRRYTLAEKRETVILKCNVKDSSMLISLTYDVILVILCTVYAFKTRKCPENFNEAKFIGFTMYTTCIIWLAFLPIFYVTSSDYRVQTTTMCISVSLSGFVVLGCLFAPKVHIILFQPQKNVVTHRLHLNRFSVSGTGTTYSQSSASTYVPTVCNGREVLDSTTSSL
# [9] = target: T4, Metabotropic glutamate receptor 4 (Homo sapiens, UniProt Q14833); test: Antagonist activity at human mGlu4 receptor expressed in CHO cell membranes in presence of glutamate by GTPgammaS binding assay; assay type: functional, Cell membrane
# [10] = target: T3, Metabotropic glutamate receptor 3; test: Agonist activity at human mGlu3 receptor expressed in CHO cell membranes by GTPgammaS binding assay; assay type: functional, Cell membrane
# Target sequence in this assay (Q14832 whole entry): as above
# [11] = target: T4, Metabotropic glutamate receptor 4; test: Agonist activity at human mGlu4 receptor expressed in CHO cell membranes by GTPgammaS binding assay; assay type: functional, Cell membrane
# [12] = target: T3, Metabotropic glutamate receptor 3; test: Agonist activity at human mGlu3 receptor expressed in CHO cell membranes by GTPgammaS binding assay relative to control; assay type: functional
# [13] = target: T1, Metabotropic glutamate receptor 1; test: Antagonist activity at human mGlu1 receptor expressed in CHO cell membranes in presence of glutamate by intracellular Ca2+ assay; assay type: functional, Cell membrane
# [14] = target: Metabotropic glutamate receptor 3 (Rattus norvegicus) (UniProt P31422); test: Agonist activity at rat mGlu3 receptor expressed in CHO cell membranes by GTPgammaS binding assay relative to control; assay type: functional; details: Cell membrane, filed as agonist
# [15] = target: T2, Metabotropic glutamate receptor 8; test: Agonist activity at human mGlu8 receptor expressed in CHO cell membranes by GTPgammaS binding assay; assay type: functional, Cell membrane
# Homo sapiens = species on record: Homo sapiens; test: Binding affinity to nACh receptor (unknown origin) 10 umol/L by radioligand binding assay; details: dose 10.0 µmol/L
# [16] = target: T5, Metabotropic glutamate receptor 6 (Homo sapiens, UniProt O15303); test: Antagonist activity at human mGlu6 receptor expressed in HEK293T cell membranes in presence of glutamate by GTPgammaS binding assay; assay type: functional, Cell membrane
# [17] = target: T5, Metabotropic glutamate receptor 6; test: Agonist activity at human mGlu6 receptor expressed in HEK293T cell membranes by GTPgammaS binding assay; assay type: functional, Cell membrane
# [18] = target: Metabotropic glutamate receptor 2 (Homo sapiens, UniProt Q14416); test: Agonist activity at human mGlu2 receptor expressed in CHO cell membranes by GTPgammaS binding assay; assay type: functional, Cell membrane
# Vasopressin V1b receptor (Homo sapiens), sequence (P47901 whole entry): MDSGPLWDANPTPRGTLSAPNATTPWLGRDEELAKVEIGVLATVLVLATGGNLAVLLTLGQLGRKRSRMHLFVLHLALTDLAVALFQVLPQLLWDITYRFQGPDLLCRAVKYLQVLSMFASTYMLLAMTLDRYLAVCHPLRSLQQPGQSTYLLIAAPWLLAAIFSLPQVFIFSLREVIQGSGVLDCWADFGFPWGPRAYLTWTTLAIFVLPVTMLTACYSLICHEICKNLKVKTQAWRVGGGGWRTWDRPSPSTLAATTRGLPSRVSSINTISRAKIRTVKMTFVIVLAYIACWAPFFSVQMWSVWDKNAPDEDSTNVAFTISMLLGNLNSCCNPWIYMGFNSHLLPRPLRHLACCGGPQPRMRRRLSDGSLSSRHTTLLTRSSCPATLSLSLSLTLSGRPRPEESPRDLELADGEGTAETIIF
# Alpha-2B adrenergic receptor (Homo sapiens), sequence (P18089 whole entry): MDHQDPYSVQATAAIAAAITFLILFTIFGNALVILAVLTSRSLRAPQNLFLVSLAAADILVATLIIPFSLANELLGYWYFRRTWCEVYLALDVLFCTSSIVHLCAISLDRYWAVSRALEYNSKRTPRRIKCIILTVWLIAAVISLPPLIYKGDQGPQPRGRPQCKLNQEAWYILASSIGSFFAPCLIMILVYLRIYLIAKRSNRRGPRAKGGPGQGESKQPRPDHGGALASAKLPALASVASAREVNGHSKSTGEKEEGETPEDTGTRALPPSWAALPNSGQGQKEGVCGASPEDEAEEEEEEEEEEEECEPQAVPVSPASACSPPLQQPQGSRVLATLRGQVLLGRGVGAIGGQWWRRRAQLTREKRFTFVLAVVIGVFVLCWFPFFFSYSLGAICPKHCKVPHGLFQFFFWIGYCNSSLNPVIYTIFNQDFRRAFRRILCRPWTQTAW
# Muscarinic acetylcholine receptor M5 (Homo sapiens), sequence (P08912 whole entry): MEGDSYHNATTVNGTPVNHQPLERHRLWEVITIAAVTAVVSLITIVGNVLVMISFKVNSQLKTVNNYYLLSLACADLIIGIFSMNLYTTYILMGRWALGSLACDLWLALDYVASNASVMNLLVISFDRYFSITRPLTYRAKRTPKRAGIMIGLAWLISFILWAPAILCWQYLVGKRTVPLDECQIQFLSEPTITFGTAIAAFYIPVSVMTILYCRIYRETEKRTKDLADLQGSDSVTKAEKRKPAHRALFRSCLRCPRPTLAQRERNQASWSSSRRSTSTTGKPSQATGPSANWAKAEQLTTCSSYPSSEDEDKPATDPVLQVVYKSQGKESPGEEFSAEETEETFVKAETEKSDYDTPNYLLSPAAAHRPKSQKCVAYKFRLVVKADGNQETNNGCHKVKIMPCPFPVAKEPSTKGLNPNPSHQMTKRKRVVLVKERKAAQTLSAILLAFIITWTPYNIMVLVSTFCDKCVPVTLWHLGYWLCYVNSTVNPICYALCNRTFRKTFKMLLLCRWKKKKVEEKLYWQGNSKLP
# T2 sequence (O00222 whole entry): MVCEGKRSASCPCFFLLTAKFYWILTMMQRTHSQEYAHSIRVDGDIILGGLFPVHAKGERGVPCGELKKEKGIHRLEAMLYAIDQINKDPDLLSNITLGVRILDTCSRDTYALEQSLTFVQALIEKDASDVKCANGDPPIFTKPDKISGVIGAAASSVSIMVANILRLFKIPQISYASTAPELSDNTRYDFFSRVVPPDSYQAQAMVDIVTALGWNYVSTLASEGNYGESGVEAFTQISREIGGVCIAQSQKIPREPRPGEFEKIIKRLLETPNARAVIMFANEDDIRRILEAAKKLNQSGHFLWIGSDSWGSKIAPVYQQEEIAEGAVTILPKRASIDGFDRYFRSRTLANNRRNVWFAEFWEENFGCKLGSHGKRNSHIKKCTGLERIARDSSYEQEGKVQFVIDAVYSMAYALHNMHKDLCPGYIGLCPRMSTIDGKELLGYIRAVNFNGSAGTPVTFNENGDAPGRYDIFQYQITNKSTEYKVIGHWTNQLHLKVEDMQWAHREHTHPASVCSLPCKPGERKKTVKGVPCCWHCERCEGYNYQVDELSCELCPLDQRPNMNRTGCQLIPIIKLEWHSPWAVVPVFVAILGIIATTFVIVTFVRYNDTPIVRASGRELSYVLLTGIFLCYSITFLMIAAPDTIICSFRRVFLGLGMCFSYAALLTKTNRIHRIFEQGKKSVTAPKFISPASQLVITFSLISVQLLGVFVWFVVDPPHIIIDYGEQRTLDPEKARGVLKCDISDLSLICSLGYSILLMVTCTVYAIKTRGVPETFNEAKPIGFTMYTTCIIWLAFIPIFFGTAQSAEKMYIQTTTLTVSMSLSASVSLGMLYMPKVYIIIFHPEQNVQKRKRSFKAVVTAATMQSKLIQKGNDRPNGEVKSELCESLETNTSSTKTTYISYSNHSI
# T1 sequence (Q13255 whole entry): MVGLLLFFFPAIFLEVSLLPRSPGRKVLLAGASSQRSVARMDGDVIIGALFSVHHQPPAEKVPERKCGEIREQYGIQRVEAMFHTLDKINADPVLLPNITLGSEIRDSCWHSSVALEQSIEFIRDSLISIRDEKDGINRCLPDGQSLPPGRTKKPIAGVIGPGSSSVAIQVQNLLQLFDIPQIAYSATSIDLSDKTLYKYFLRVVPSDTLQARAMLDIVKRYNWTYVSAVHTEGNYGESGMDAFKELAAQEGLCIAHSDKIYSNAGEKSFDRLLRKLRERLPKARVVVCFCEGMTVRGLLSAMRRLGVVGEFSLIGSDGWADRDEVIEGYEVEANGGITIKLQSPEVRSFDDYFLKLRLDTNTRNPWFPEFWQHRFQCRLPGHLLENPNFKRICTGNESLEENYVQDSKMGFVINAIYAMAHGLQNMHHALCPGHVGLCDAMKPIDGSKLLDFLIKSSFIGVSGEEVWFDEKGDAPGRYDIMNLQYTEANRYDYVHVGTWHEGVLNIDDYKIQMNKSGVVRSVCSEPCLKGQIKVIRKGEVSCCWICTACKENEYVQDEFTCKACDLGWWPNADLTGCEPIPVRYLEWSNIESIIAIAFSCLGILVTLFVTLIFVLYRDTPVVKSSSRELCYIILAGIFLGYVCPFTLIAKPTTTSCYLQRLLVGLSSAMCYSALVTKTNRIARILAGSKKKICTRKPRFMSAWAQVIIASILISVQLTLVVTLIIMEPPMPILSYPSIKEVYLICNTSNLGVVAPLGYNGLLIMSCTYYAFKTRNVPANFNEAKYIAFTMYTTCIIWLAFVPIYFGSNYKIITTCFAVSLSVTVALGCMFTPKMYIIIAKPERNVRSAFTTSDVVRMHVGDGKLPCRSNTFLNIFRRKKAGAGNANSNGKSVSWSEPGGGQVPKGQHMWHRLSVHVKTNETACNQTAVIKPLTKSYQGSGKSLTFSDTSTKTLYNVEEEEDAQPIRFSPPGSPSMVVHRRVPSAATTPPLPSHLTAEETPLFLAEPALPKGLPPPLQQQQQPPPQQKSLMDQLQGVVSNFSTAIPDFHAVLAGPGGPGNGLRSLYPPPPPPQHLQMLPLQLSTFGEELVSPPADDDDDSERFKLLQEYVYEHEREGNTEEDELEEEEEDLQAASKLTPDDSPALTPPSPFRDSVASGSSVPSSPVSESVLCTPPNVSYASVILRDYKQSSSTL
EC50 [1],EC50 [2],IC50 [3],bioavailability [4],Activity [5],Activity [6],Activity [7],IC50 [8],IC50 [9],EC50 [10],EC50 [11],"Emax ([12]; Cell membrane, filed as agonist)",IC50 [13],Emax [14],EC50 [15],Activity (Homo sapiens),IC50 [16],EC50 [17],EC50 [12],EC50 [18],Compound
96.9 nM,> 30 µM,> 30 µM,4%,inactive,inactive,inactive,> 30 µM,> 30 µM,75.9 nM,> 30 µM,102%,> 30 µM,99.7%,> 30 µM,inactive,> 30 µM,> 30 µM,–,–,N[C@]1(C(=O)O)[C@H]2[C@@H](C[C@@H]1F)[C@@H]2C(=O)O
–,–,–,–,inactive,inactive,inactive,–,–,> 30000 nM,–,–,–,–,–,inactive,–,–,> 30 µM,> 30 µM,CC(C)[C@@H]1CC[C@@H](C)C[C@H]1OC(=O)O[C@@H](C)OC(=O)[C@H]1[C@@H]2C[C@H](F)[C@@](N)(C(=O)O)[C@@H]21
